# Source: publication PMC8287927, “Evidence for a chromosome origin unwinding system broadly conserved in bacteria” (Nucleic Acids Research, 2021)
# Target: T1, B. subtilis DnaA (Bacillus subtilis, UniProt P05648)
# T1 construct: full-length, cloned in pSP015 with His14-SUMO-FLAG3 tag; His14-SUMO cleaved (FLAG3 kept where present); E. coli BL21(DE3)-pLysS
# Assay: competition with TNP-ATP fluorescence
# Settings: pH 8, 5 mM magnesium acetate, 25 C; competitive with TNP-ATP, nucleotide binding pocket
# T1 sequence (P05648 whole entry): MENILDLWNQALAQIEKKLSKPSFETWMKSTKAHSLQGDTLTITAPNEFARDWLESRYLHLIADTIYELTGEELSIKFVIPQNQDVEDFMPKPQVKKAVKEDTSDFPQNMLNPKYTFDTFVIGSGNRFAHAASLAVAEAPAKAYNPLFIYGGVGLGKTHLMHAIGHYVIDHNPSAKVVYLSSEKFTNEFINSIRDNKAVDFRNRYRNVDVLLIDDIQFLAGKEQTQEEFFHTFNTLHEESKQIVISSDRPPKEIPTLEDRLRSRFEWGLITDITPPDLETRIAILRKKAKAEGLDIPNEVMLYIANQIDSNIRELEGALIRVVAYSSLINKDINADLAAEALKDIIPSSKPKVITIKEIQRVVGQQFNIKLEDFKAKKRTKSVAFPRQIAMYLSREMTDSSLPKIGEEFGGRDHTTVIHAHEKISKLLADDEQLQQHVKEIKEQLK
smiles,measurement,value
Nc1ncnc2c1ncn2[C@@H]1O[C@H](COP(=O)(O)OP(=O)(O)OP(=O)(O)O)[C@@H](O)[C@H]1O [ATP],competition with TNP-ATP fluorescence,can be competed away by addition of unlabelled ATP
